{
  "source": "patent US11684614B2",
  "about": "“Formulations of hydroxypyridonate actinide/lanthanide decorporation agents” (priority 2017, dated 2023)",
  "test": "Repeated-treatment efficacy for removing an intravenous dose of 238Pu (excretion, tissue retention, clinical observations), female and male arms;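 as to % Recovered Dose ART: abdominal tissue remainder incl GI tract reproductive organs spleen bladder and fat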",
  "type": "in vivo, Swiss-Webster mice",
  "settings": "male animals, listed as 3,4,3-LI(1,2-HOPO); for % Recovered Dose Urine per Day, Day 3 / % Recovered Dose Urine per Day, Day 4 / % Recovered Dose Urine per Day, Day 5 / % Recovered Dose Urine per Day, Day 6 / % Recovered Dose Urine per Day, Day 7 / % Recovered Dose Urine per Day, Day 2 / % Recovered Dose Urine per Day, Day 1: Day 7 necropsy",
  "procedure": "The objective of this study was to characterize the efficacy of 3,4,3-L1(1,2-HOPO) at enhancing elimination from an internal plutonium burden in female and male Swiss-Webster mice administered a soluble citrate complex of ^238Pu and treated multiple times, starting at 24 hours after the exposure. Efficacy was evaluated by comparing the tissue contents, urinary and fecal excretions of ^238Pu in treated animals versus untreated animals.\nThe medical countermeasure 3,4,3-L1(1,2-HOPO) was administered parenterally (ip) or orally (po) via consecutive injections or gavages (six daily or twelve twice daily) starting at 24 hours post contamination at the following four selected doses: 30 μmol/kg ip, 150 μmol/kg po, 300 μmol/kg po, and 600 μmol/kg po (equivalent to respective approximate human doses range of […], using the accepted conversion system of mouse doses into human equivalent doses—HED—based on body surface area). Oral doses also included the permeability enhancer selected during formulation development work.\n• Challenge isotope: ^238Pu • Challenge dose: 25 nCi (i.e., approximately 0.8 μCi/kg) • Route of contamination: Intravenous (iv) tail-vein • Route of treatment: Intraperitoneal Injection (ip) or Oral (po) • Frequency of treatment: Multiple (once- or twice-daily for 6 days) doses, starting 24 hr postcontamination • Treatment dose calculation: Dose calculations (mg/kg or μmol/kg) for the decorporation agent were based on the individual body weight measured after contamination. • Study Duration: 11 days, in-life\nc. […] Test article and control dose formulations were prepared within 1 day of dose administration, by weighing out the appropriate amount of test article, dispersing in vehicle. For ip solutions, the test article was used alone, while for oral suspensions, a mixture of test article and excipient (90:10, w:w) was used. The pH was adjusted to 7.0-7.4 for ip administration and 5.0-5.5 for oral administration with sterile NaOH. Dose formulations were prepared at room temperature and filter-sterilized. • Storage: 2-8° C.; refrigerated; protected from light. • Characterization: The concentration of each test article formulation was verified by high-performance liquid chromatography-mass spectrometry. • Test Article Handling: Test, reference, and control article formulations were handled with the use of eye protection, gloves, and a protective laboratory coat. • Correct Dose Assurance: The test article was weighed with calibrated balances. The administration of each dose formulation was properly documented, and the amount administered to each animal recorded.\ne. Experimental Procedures (In-Life Evaluations and Euthanasia) • Contamination: Single administration by intravenous (iv) tail-vein injection (0.2 mL injection volume) under isoflurane anesthesia. Three standard 0.2 mL injections were performed into polyethylene bottles and pre-loaded with aliquots of concentrated nitric acid on each injection day. Six female and six male mice were culled for necropsy 1 hr post-contamination and were used as standards. A11 standards were processed and counted together with the final samples to allow verification of the contamination dose. • Dose Administration: Single administration by intraperitoneal injection (ip) or oral gavage (po) under isoflurane anesthesia. • Mortality/Morbidity: Assessed at least once daily. • Clinical Observations: Recorded once daily (4 hr post-dose on day of treatment), or more often as clinical signs warranted. […]",
  "note": "“And” between values parts separate entries of the source, which are not always exact repeats. Equal values may be shown once.",
  "data": [
    {"smiles": "O=C(NCCCN(CCCCN(CCCNC(=O)c1cccc(=O)n1O)C(=O)c1cccc(=O)n1O)C(=O)c1cccc(=O)n1O)c1cccc(=O)n1O", "note": "[3,4,3-L1(1,2-HOPO)]", "values": [
      {"measurement": "% Recovered Dose Urine per Day, Day 3", "setting": "animal group B", "value": "0.61% and 1.15% and 1.12% and 1.18%"},
      {"measurement": "% Recovered Dose Urine per Day, Day 4", "setting": "animal group B", "value": "1.30% and 0.41% and 0.54% and 0.89%"},
      {"measurement": "% Recovered Dose Urine per Day, Day 5", "setting": "animal group B", "value": "0.61% and 0.58% and 0.10% and 0.65%"},
      {"measurement": "% Recovered Dose Urine per Day, Day 6", "setting": "animal group B", "value": "0.18% and 0.64% and 0.10%"},
      {"measurement": "% Recovered Dose Urine per Day, Day 7", "setting": "animal group B", "value": "0.17% and 0.37% and 0.28% and 0.50%"},
      {"measurement": "% Recovered Dose Urine per Day, Day 2", "setting": "animal group C", "value": "1.72% and 4.28% and 3.19% and 0.38%"},
      {"measurement": "% Recovered Dose Urine per Day, Day 3", "setting": "animal group C", "value": "0.95% and 1.32% and 0.98% and 0.50%"},
      {"measurement": "% Recovered Dose Urine per Day, Day 4", "setting": "animal group C", "value": "0.59% and 1.17% and 0.68% and 0.55%"},
      {"measurement": "% Recovered Dose Urine per Day, Day 5", "setting": "animal group C", "value": "0.35% and 0.65% and 0.33% and 0.19%"},
      {"measurement": "% Recovered Dose Urine per Day, Day 6", "setting": "animal group C", "value": "0.19% and 0.70% and 0.52% and 0.07%"},
      {"measurement": "% Recovered Dose Urine per Day, Day 7", "setting": "animal group C", "value": "0.10% and 0.94% and 0.45% and 0.11%"},
      {"measurement": "% Recovered Dose Urine per Day, Day 1", "setting": "animal group E", "value": "21.72% and 14.01% and 18.66% and 17.47%"},
      {"measurement": "% Recovered Dose Urine per Day, Day 2", "setting": "animal group E", "value": "3.64% and 2.67% and 3.46% and 2.04%"},
      {"measurement": "% Recovered Dose Urine per Day, Day 3", "setting": "animal group E", "value": "1.49% and 0.90% and 1.61% and 1.12%"},
      {"measurement": "% Recovered Dose Urine per Day, Day 4", "setting": "animal group E", "value": "0.67% and 0.69% and 0.59% and 0.53%"},
      {"measurement": "% Recovered Dose Urine per Day, Day 5", "setting": "animal group E", "value": "0.39% and 0.62% and 0.41%"},
      {"measurement": "% Recovered Dose Urine per Day, Day 6", "setting": "animal group E", "value": "0.49% and 0.53% and 0.46% and 0.31%"},
      {"measurement": "% Recovered Dose Urine per Day, Day 7", "setting": "animal group E", "value": "0.21% and 0.41% and 0.23% and 0.27%"},
      {"measurement": "% Recovered Dose Urine per Day, Day 1", "setting": "animal group F", "value": "19.31% and 19.65% and 13.22% and 25.18%"},
      {"measurement": "% Recovered Dose Urine per Day, Day 2", "setting": "animal group F", "value": "3.62% and 1.94% and 2.38% and 2.07%"},
      {"measurement": "% Recovered Dose Urine per Day, Day 3", "setting": "animal group F", "value": "1.51% and 1.15% and 1.06%"},
      {"measurement": "% Recovered Dose Urine per Day, Day 4", "setting": "animal group F", "value": "0.98% and 0.55% and 0.74% and 0.83%"},
      {"measurement": "% Recovered Dose Urine per Day, Day 5", "setting": "animal group F", "value": "0.45% and 0.42% and 0.47% and 0.41%"},
      {"measurement": "% Recovered Dose Urine per Day, Day 6", "setting": "animal group F", "value": "0.45% and 0.47% and 0.36% and 0.29%"},
      {"measurement": "% Recovered Dose Urine per Day, Day 7", "setting": "animal group F", "value": "0.55% and 0.40% and 0.72% and 0.26%"},
      {"measurement": "% Recovered Dose ART", "setting": "Day-7 necropsy, animal group B", "value": "2.16% and 1.57% and 1.65% and 1.32%"},
      {"measurement": "% Recovered Dose Combined Body", "setting": "Day-7 necropsy, animal group B", "value": "52.05% and 37.93% and 50.13% and 45.55%"},
      {"measurement": "% Recovered Dose Combined Excreta", "setting": "Day-7 necropsy, animal group B", "value": "47.95% and 62.07% and 49.87% and 54.45%"},
      {"measurement": "% Recovered Dose Kidney", "setting": "Day-7 necropsy, animal group B", "value": "0.29% and 0.25% and 0.26% and 0.45%"},
      {"measurement": "% Recovered Dose SKEL", "setting": "Day-7 necropsy, animal group B", "value": "15.55% and 20.00% and 23.24% and 20.71%"},
      {"measurement": "% Recovered Dose SOFT", "setting": "Day-7 necropsy, animal group B", "value": "3.27% and 3.41% and 2.67% and 3.29%"},
      {"measurement": "% Recovered Dose Total Feces", "setting": "Day-7 necropsy, animal group B", "value": "22.40% and 40.49% and 26.02% and 32.13%"},
      {"measurement": "% Recovered Dose Total Urine", "setting": "Day-7 necropsy, animal group B", "value": "25.54% and 21.58% and 23.85% and 22.32%"},
      {"measurement": "% Recovered Dose ART", "setting": "Day-7 necropsy, animal group C", "value": "1.42% and 1.55% and 1.84% and 1.39%"},
      {"measurement": "% Recovered Dose Combined Body", "setting": "Day-7 necropsy, animal group C", "value": "44.39% and 38.12% and 45.21% and 38.36%"},
      {"measurement": "% Recovered Dose Combined Excreta", "setting": "Day-7 necropsy, animal group C", "value": "55.61% and 61.88% and 54.79% and 61.64%"}
    ]}
  ]
}
